Reference: patent publication US11760741B2, “Pro-drugs of eliglustat” (KASHIV BIOSCIENCES, LLC, priority 2018, dated 2023)
Where a name gives a salt, the structure may show the parent alone.

Assay: in vitro
Settings: human, microsomes, pH 7.4

SMILES | half-life [min]
CCCCCCCC(=O)N[C@H](CN1CCCC1)[C@H](OC(=O)c1ccccc1N)c1ccc2c(c1)OCCO2 [I-v, (1R,2R)-1-(2,3-dihydrobenzo[b][1,4]dioxin-6-yl)-2-octanamido-3-(pyrrolidin-1-yl)propyl 2-aminobenzoate] | < 30
CCCCCCCC(=O)N[C@H](CN1CCCC1)[C@H](OC(=O)Cc1ccccc1)c1ccc2c(c1)OCCO2 [I-b Hemitartrate salt, (1R,2R)-1-(2,3-dihydrobenzo[b][1,4]dioxin-6-yl)-2-octanamido-3-(pyrrolidin-1-yl)propyl 2-phenylacetate] | < 30

Assay: not given
Settings: human, microsomes

SMILES | HLM stability (half-life, minutes) [min]
CCCCCCCC(=O)N[C@H](CN1CCCC1)[C@H](OC(=O)c1ccccc1)c1ccc2c(c1)OCCO2 [I-a Hemitartrate salt, (1R,2R)-1-(2,3-dihydrobenzo[b][1,4]dioxin-6-yl)-2-octanamido-3-(pyrrolidin-1-yl)propyl benzoate] | <30
CCCCCCCC(=O)N[C@H](CN1CCCC1)[C@H](OC(C)=O)c1ccc2c(c1)OCCO2 [I-e Hemitartrate salt, (1R,2R)-1-(2,3-dihydrobenzo[b][1,4]dioxin-6-yl)-2-octanamido-3-(pyrrolidin-1-yl)propyl acetate] | <30
CCCCCCCC(=O)N[C@H](CN1CCCC1)[C@H](OC(=O)CC)c1ccc2c(c1)OCCO2 [I-f Hemitartrate salt, (1R,2R)-1-(2,3-dihydrobenzo[b][1,4]dioxin-6-yl)-2-octanamido-3-(pyrrolidin-1-yl)propyl propionate] | <30

Assay: Metabolic stability of prodrugs in human liver microsomes
Settings: pH 7.4

SMILES | half-life [min]
CCCCCCCCCCCC(=O)O[C@H](c1ccc2c(c1)OCCO2)[C@@H](CN1CCCC1)NC(=O)CCCCCCC [I-k Hemitartrate salt, (1R,2R)-1-(2,3-dihydrobenzo[b][1,4]dioxin-6-yl)-2-octanamido-3-(pyrrolidin-1-yl)propyl dodecanoate] | 70
CCCCCCCC(=O)N[C@H](CN1CCCC1)[C@H](OC(=O)CCCCCCC)c1ccc2c(c1)OCCO2 [I-i Hemitartrate salt, (1R,2R)-1-(2,3-dihydrobenzo[b][1,4]dioxin-6-yl)-2-octanamido-3-(pyrrolidin-1-yl)propyl octanoate] | < 30
CCCCCCCC(=O)N[C@H](CN1CCCC1)[C@H](OC(=O)N1CCC(N2CCCCC2)CC1)c1ccc2c(c1)OCCO2 [I-q, (1R,2R)-1-(2,3-dihydrobenzo[b][1,4]dioxin-6-yl)-2-octanamido-3-(pyrrolidin-1-yl)propyl [1,4′-bipiperidine]-1′-carboxylate] | < 30
CCCCCCCC(=O)N[C@H](CN1CCCC1)[C@H](OC(=O)CCC(=O)O)c1ccc2c(c1)OCCO2 [I-o, 4-((1R,2R)-1-(2,3-dihydrobenzo[b][1,4]dioxin-6-yl)-2-octanamido-3-(pyrrolidin-1-yl)propoxy)-4-oxobutanoic acid] | > 90
CCCCCCCC(=O)N[C@H](CN1CCCC1)[C@H](OC(=O)COCCOCCOC)c1ccc2c(c1)OCCO2 [II-a, (1R,2R)-1-(2,3-dihydrobenzo[b][1,4]dioxin-6-yl)-2-octanamido-3-(pyrrolidin-1-yl)propyl 2-(2-(2-methoxyethoxy)ethoxy)acetate] | < 30
CCCCCCCC(=O)N[C@H](CN1CCCC1)[C@H](OC(=O)CCOCCOCCN)c1ccc2c(c1)OCCO2 [II-b, (1R,2R)-1-(2,3-dihydrobenzo[b][1,4]dioxin-6-yl)-2-octanamido-3-(pyrrolidin-1-yl)propyl 3-(2-(2-aminoethoxy)ethoxy)propanoate] | > 90
CCCCCCCC(=O)N[C@H](CN1CCCC1)[C@H](OC(=O)C(C)(C)C)c1ccc2c(c1)OCCO2 [I-h Hemitartrate salt, (1R,2R)-1-(2,3-dihydrobenzo[b][1,4]dioxin-6-yl)-2-octanamido-3-(pyrrolidin-1-yl)propyl pivalate] | < 30
CCCCCCCC(=O)N[C@H](CN1CCCC1)[C@H](OC(=O)NC)c1ccc2c(c1)OCCO2 [I-u Hemitartrate salt, (1R,2R)-1-(2,3-dihydrobenzo[b][1,4]dioxin-6-yl)-2-octanamido-3-(pyrrolidin-1-yl)propyl methylcarbamate] | < 30
CCCCCCCC(=O)N[C@H](CN1CCCC1)[C@H](OC(=O)CCN1CCOCC1)c1ccc2c(c1)OCCO2 [I-x, (1R,2R)-1-(2,3-dihydrobenzo[b][1,4]dioxin-6-yl)-2-octanamido-3-(pyrrolidin-1-yl)propyl 3-morpholinopropanoate] | < 30
CCCCCCCC(=O)N[C@H](CN1CCCC1)[C@H](OC(=O)CCCCC)c1ccc2c(c1)OCCO2 [I-aa, (1R,2R)-1-(2,3-dihydrobenzo[b][1,4]dioxin-6-yl)-2-octanamido-3-(pyrrolidin-1-yl)propyl hexanoate] | < 30
CCCCCCCC(=O)N[C@H](CN1CCCC1)[C@H](OC(=O)[C@H](N)C(C)C)c1ccc2c(c1)OCCO2 [I-l Hydrochloride salt] | < 30
CCCCCCCCCC(=O)O[C@H](c1ccc2c(c1)OCCO2)[C@@H](CN1CCCC1)NC(=O)CCCCCCC [I-j Hemitartrate salt, (1R,2R)-1-(2,3-dihydrobenzo[b][1,4]dioxin-6-yl)-2-octanamido-3-(pyrrolidin-1-yl)propyl decanoate] | 63
CCCCCCCC(=O)N[C@H](CN1CCCC1)[C@H](OC(=O)c1ccccc1O)c1ccc2c(c1)OCCO2 [I-d Hemitartrate salt, (1R,2R)-1-(2,3-dihydrobenzo[b][1,4]dioxin-6-yl)-2-octanamido-3-(pyrrolidin-1-yl)propyl 2-hydroxybenzoate] | < 30
CCCCCCCC(=O)N[C@H](CN1CCCC1)[C@H](OS(=O)(=O)O)c1ccc2c(c1)OCCO2 [IV-d, (1R,2R)-1-(2,3-dihydrobenzo[b][1,4]dioxin-6-yl)-2-octanamido-3-(pyrrolidin-1-yl)propyl hydrogen sulfate] | > 90
CCCCCCCC(=O)N[C@H](CN1CCCC1)[C@H](OC(=O)c1cccnc1)c1ccc2c(c1)OCCO2 [I-c Hemitartrate salt, (1R,2R)-1-(2,3-dihydrobenzo[b][1,4]dioxin-6-yl)-2-octanamido-3-(pyrrolidin-1-yl)propyl nicotinate] | < 30
CCCCCCCC(=O)N[C@H](CN1CCCC1)[C@H](OC(=O)/C=C/C(=O)O)c1ccc2c(c1)OCCO2 [I-s, (E)-4-((1R,2R)-1-(2,3-dihydrobenzo[b][1,4]dioxin-6-yl)-2-octanamido-3-(pyrrolidin-1-yl)propoxy)-4-oxobut-2-enoic acid] | 64
CCCCCCCC(=O)N[C@H](CN1CCCC1)[C@H](OC(=O)CN(C)C)c1ccc2c(c1)OCCO2 [I-w, (1R,2R)-1-(2,3-dihydrobenzo[b][1,4]dioxin-6-yl)-2-octanamido-3-(pyrrolidin-1-yl)propyl dimethylglycinate] | < 30
CCCCCCCC(=O)N[C@H](CN1CCCC1)[C@H](OC(=O)OCC)c1ccc2c(c1)OCCO2 [I-p Hemitartrate salt, (1R,2R)-1-(2,3-dihydrobenzo[b][1,4]dioxin-6-yl)-2-octanamido-3-(pyrrolidin-1-yl)propyl ethyl carbonate] | < 30
CCCCCCCC(=O)N[C@H](CN1CCCC1)[C@H](OS(N)(=O)=O)c1ccc2c(c1)OCCO2 [IV-c, (1R,2R)-1-(2,3-dihydrobenzo[b][1,4]dioxin-6-yl)-2-octanamido-3-(pyrrolidin-1-yl)propyl sulfamate] | < 30
CCCCCCCC(=O)N[C@H](CN1CCCC1)[C@H](O)c1ccc2c(c1)OCCO2 [Eliglustat, N-((1R, 2R)-1-(2,3-dihydrobenzo[b] [1,4]dioxin-6-yl)-1-hydroxy-3-(pyrrolidin-1-yl)propan-2-yl) octanamide] | 30
CCCCCCCC(=O)N[C@H](CN1CCCC1)[C@H](OC(=O)[C@@H](N)C(C)C)c1ccc2c(c1)OCCO2 [I-m Hemitartrate salt] | < 30
CCCCCCCC(=O)N[C@H](CN1CCCC1)[C@H](OC(=O)CCCC(=O)O)c1ccc2c(c1)OCCO2 [I-t, 5-((1R,2R)-1-(2,3-dihydrobenzo[b][1,4]dioxin-6-yl)-2-octanamido-3-(pyrrolidin-1-yl)propoxy)-5-oxopentanoic acid] | 65
CCCCCCCC(=O)N[C@H](CN1CCCC1)[C@H](OC(=O)N(CC)CC)c1ccc2c(c1)OCCO2 [I-n Hemitartrate salt, (1R,2R)-1-(2,3-dihydrobenzo[b][1,4]dioxin-6-yl)-2-octanamido-3-(pyrrolidin-1-yl)propyl diethylcarbamate] | < 30
CCCCCCCC(=O)N[C@H](CN1CCCC1)[C@H](OC(=O)C(C)C)c1ccc2c(c1)OCCO2 [I-g Hemitartrate salt, (1R,2R)-1-(2,3-dihydrobenzo[b][1,4]dioxin-6-yl)-2-octanamido-3-(pyrrolidin-1-yl)propyl isobutyrate] | < 30
CCCCCCCC(=O)N[C@H](CN1CCCC1)[C@H](OC(=O)N(C)C)c1ccc2c(c1)OCCO2 [I-r, (1R,2R)-1-(2,3-dihydrobenzo[b][1,4]dioxin-6-yl)-2-octanamido-3-(pyrrolidin-1-yl)propyl dimethylcarbamate] | < 30
CCCCCCCC(=O)N[C@H](CN1CCCC1)[C@H](OC(=O)CC(=O)O)c1ccc2c(c1)OCCO2 [I-z, 3-((1R,2R)-1-(2,3-dihydrobenzo[b][1,4]dioxin-6-yl)-2-octanamido-3-(pyrrolidin-1-yl)propoxy)-3-oxopropanoic acid] | > 90
